{"source": "patent US20210382058A1", "about": "“PATIENT SELECTION FOR TREATMENT OF MYC POSITIVE CANCERS WITH INDENOISOQUINOLINES” (Purdue Research Foundation, priority 2020, published 2021)", "key": {"NCI-60 cancer cell lines": {"system": "NCI-60 cancer cell lines", "experiment": "NCI-60 cancer cell line drug screen (GI50, MGM)", "type": "cell-based, human", "conditions": "Homo sapiens; for GI50: read-out: Antiproliferative Activities [GI50 (μM)]", "method": "Cancer cells were incubated with the test compounds at five concentrations ranging from 100 μM to 10 nM for 48 h. […] The approximate average of GI50 values across the entire panel of NCI-60 cancer cell lines for each compound was recorded as the MGM value."}, "[1]": {"system": "MYC protein expression in MCF-7 breast cancer cells", "experiment": "Western blotting of MYC protein level in MCF-7 cells", "type": "cell-based, human", "conditions": "MCF-7, 0.5, 1, 2, and 4 μM, 24 h", "summary_of_the_method": "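Immunoblotting with ECL detection quantified MYC, with GAPDH (1:2000) as reference and anti-MYC at 1:1000.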"}, "human topoisomerase I": {"molecular_target": "T1, human topoisomerase I (Homo sapiens, UniProt P11387)", "T1 sequence (P11387 1-765)": "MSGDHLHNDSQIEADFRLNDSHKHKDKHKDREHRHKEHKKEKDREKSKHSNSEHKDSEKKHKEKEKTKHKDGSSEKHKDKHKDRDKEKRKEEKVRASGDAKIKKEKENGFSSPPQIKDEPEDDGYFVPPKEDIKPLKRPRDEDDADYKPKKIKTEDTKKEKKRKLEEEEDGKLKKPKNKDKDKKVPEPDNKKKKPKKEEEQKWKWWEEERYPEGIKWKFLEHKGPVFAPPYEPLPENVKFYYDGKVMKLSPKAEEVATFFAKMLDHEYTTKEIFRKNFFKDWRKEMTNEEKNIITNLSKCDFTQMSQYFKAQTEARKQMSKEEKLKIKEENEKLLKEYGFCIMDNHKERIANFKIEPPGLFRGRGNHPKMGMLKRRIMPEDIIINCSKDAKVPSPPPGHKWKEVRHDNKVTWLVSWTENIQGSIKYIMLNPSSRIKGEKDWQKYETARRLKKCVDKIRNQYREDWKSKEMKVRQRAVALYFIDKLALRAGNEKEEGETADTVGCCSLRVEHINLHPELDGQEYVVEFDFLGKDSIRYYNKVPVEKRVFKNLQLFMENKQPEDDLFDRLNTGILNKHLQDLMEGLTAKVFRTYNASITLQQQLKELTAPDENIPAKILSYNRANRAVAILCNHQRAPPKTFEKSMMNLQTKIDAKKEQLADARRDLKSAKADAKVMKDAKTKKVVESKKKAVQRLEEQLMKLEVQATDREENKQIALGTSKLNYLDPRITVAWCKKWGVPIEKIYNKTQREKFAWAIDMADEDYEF", "conditions": "relative topoisomerase I inhibition levels, previously determined, six levels (0 - 5, +++++ = 5); cited from earlier work"}}, "note": "Where two headings read alike, the source gives them in different places.", "data": [{"smiles": "COc1cnc2c(c1)C(=O)c1c-2n(CCCN2CCCC2)c(=O)c2cc([N+](=O)[O-])ccc12", "note": "[Compound 9]", "values": [{"measurement": "GI50", "setting": "NCI-60 cancer cell lines; 786-0, Renal Cancer, 786-0", "result": 0.03, "unit": "µM"}, {"measurement": "GI50", "setting": "NCI-60 cancer cell lines; A549, Non-Small Cell Lung Cancer, A549/ATCC", "result": 0.05, "unit": "µM"}, {"measurement": "GI50", "setting": "NCI-60 cancer cell lines; ACHN, Renal Cancer, ACHN", "result": "< 0.01", "unit": "µM"}, {"measurement": "GI50", "setting": "NCI-60 cancer cell lines; BT-549, Breast Cancer, BT-549", "result": 0.35, "unit": "µM"}, {"measurement": "GI50", "setting": "NCI-60 cancer cell lines; CAKI-1, Renal Cancer, CAKI-1", "result": "< 0.01", "unit": "µM"}, {"measurement": "GI50", "setting": "NCI-60 cancer cell lines; CCRF-CEM, Leukemia, CCRF-CEM", "result": "< 0.01", "unit": "µM"}, {"measurement": "GI50", "setting": "NCI-60 cancer cell lines; COLO 205, Colon Cancer, COLO 205", "result": 0.04, "unit": "µM"}, {"measurement": "GI50", "setting": "NCI-60 cancer cell lines; DU-145, Prostate Cancer, DU-145", "result": 0.02, "unit": "µM"}, {"measurement": "GI50", "setting": "NCI-60 cancer cell lines; EKVX, Non-Small Cell Lung Cancer, EKVX", "result": 0.3, "unit": "µM"}, {"measurement": "GI50", "setting": "NCI-60 cancer cell lines; HCC 2998, Colon Cancer, HCC-2998", "result": 0.16, "unit": "µM"}, {"measurement": "GI50", "setting": "NCI-60 cancer cell lines; HCT-15, Colon Cancer, HCT-15", "result": 0.06, "unit": "µM"}, {"measurement": "GI50", "setting": "NCI-60 cancer cell lines; HCT-116, Colon Cancer, HCT-116", "result": "< 0.01", "unit": "µM"}, {"measurement": "GI50", "setting": "NCI-60 cancer cell lines; HL-60, Leukemia, HL-60(TB)", "result": 0.03, "unit": "µM"}, {"measurement": "GI50", "setting": "NCI-60 cancer cell lines; HOP-62, Non-Small Cell Lung Cancer, HOP-62", "result": "< 0.01", "unit": "µM"}, {"measurement": "GI50", "setting": "NCI-60 cancer cell lines; HOP-92, Non-Small Cell Lung Cancer, HOP-92", "result": 0.55, "unit": "µM"}, {"measurement": "GI50", "setting": "NCI-60 cancer cell lines; HT-29, Colon Cancer, HT29", "result": 0.02, "unit": "µM"}, {"measurement": "GI50", "setting": "NCI-60 cancer cell lines; Hs-578T, Breast Cancer, HS 578T", "result": 1.91, "unit": "µM"}, {"measurement": "GI50", "setting": "NCI-60 cancer cell lines; IGROV-1, Ovarian Cancer, IGROV1", "result": 0.02, "unit": "µM"}, {"measurement": "GI50", "setting": "NCI-60 cancer cell lines; K562, Leukemia, K-562", "result": 0.02, "unit": "µM"}, {"measurement": "GI50", "setting": "NCI-60 cancer cell lines; KM12, Colon Cancer, KM12", "result": 0.14, "unit": "µM"}, {"measurement": "GI50", "setting": "NCI-60 cancer cell lines; LOX IMVI, Melanoma, LOX IMVI", "result": "< 0.01", "unit": "µM"}, {"measurement": "GI50", "setting": "NCI-60 cancer cell lines; Leukemia, SR", "result": "< 0.01", "unit": "µM"}, {"measurement": "GI50", "setting": "NCI-60 cancer cell lines; MCF7, Breast Cancer, MCF7", "result": "< 0.01", "unit": "µM"}, {"measurement": "GI50", "setting": "NCI-60 cancer cell lines; MDA-MB-231, Breast Cancer, MDA-MB-231/ATCC", "result": 0.68, "unit": "µM"}, {"measurement": "GI50", "setting": "NCI-60 cancer cell lines; MDA-MB-435, Melanoma, MDA-MB-435", "result": 0.06, "unit": "µM"}, {"measurement": "GI50", "setting": "NCI-60 cancer cell lines; MDA-MB-468, Breast Cancer, MDA-MB-468", "result": 0.03, "unit": "µM"}, {"measurement": "GI50", "setting": "NCI-60 cancer cell lines; MOLT-4, Leukemia, MOLT-4", "result": "< 0.01", "unit": "µM"}, {"measurement": "GI50", "setting": "NCI-60 cancer cell lines; Malme-3M, Melanoma, MALME-3M", "result": 0.06, "unit": "µM"}, {"measurement": "GI50", "setting": "NCI-60 cancer cell lines; Melanoma, M14", "result": "< 0.01", "unit": "µM"}, {"measurement": "GI50", "setting": "NCI-60 cancer cell lines; NCI-H23, Non-Small Cell Lung Cancer, NCI-H23", "result": 0.03, "unit": "µM"}, {"measurement": "GI50", "setting": "NCI-60 cancer cell lines; NCI-H226, Non-Small Cell Lung Cancer, NCI-H226", "result": 0.1, "unit": "µM"}, {"measurement": "GI50", "setting": "NCI-60 cancer cell lines; NCI-H322M, Non-Small Cell Lung Cancer, NCI-H322M", "result": 0.05, "unit": "µM"}, {"measurement": "GI50", "setting": "NCI-60 cancer cell lines; NCI-H460, Non-Small Cell Lung Cancer, NCI-H460", "result": "< 0.01", "unit": "µM"}, {"measurement": "GI50", "setting": "NCI-60 cancer cell lines; NCI-H522, Non-Small Cell Lung Cancer, NCI-H522", "result": 0.06, "unit": "µM"}, {"measurement": "GI50", "setting": "NCI-60 cancer cell lines; OVCAR-3, Ovarian Cancer, OVCAR-3", "result": 0.06, "unit": "µM"}, {"measurement": "GI50", "setting": "NCI-60 cancer cell lines; OVCAR-4, Ovarian Cancer, OVCAR-4", "result": 0.08, "unit": "µM"}, {"measurement": "GI50", "setting": "NCI-60 cancer cell lines; OVCAR-5, Ovarian Cancer, OVCAR-5", "result": 0.16, "unit": "µM"}, {"measurement": "GI50", "setting": "NCI-60 cancer cell lines; OVCAR-8, Ovarian Cancer, OVCAR-8", "result": 0.09, "unit": "µM"}, {"measurement": "GI50", "setting": "NCI-60 cancer cell lines; Ovarian Cancer, NCl/ADR-RES", "result": 0.03, "unit": "µM"}, {"measurement": "GI50", "setting": "NCI-60 cancer cell lines; Prostate Cancer, PC-3", "result": 0.07, "unit": "µM"}, {"measurement": "GI50", "setting": "NCI-60 cancer cell lines; RPMI-8226, Leukemia, RPMI-8226", "result": 0.04, "unit": "µM"}, {"measurement": "GI50", "setting": "NCI-60 cancer cell lines; RXF 393, Renal Cancer, RXF 393", "result": 0.06, "unit": "µM"}, {"measurement": "GI50", "setting": "NCI-60 cancer cell lines; Renal Cancer, U0-31", "result": "< 0.01", "unit": "µM"}, {"measurement": "GI50", "setting": "NCI-60 cancer cell lines; SF-268, CNS Cancer, SF-268", "result": 0.02, "unit": "µM"}, {"measurement": "GI50", "setting": "NCI-60 cancer cell lines; SF-295, CNS Cancer, SF-295", "result": "< 0.01", "unit": "µM"}, {"measurement": "GI50", "setting": "NCI-60 cancer cell lines; SF-539, CNS Cancer, SF-539", "result": 0.03, "unit": "µM"}, {"measurement": "GI50", "setting": "NCI-60 cancer cell lines; SK-MEL-2, Melanoma, SK-MEL-2", "result": 1.01, "unit": "µM"}, {"measurement": "GI50", "setting": "NCI-60 cancer cell lines; SK-MEL-5, Melanoma, SK-MEL-5", "result": 0.07, "unit": "µM"}, {"measurement": "GI50", "setting": "NCI-60 cancer cell lines; SK-MEL-28, Melanoma, SK-MEL-28", "result": 10.6, "unit": "µM"}, {"measurement": "GI50", "setting": "NCI-60 cancer cell lines; SK-OV-3, Ovarian Cancer, SK-OV-3", "result": 0.03, "unit": "µM"}, {"measurement": "GI50", "setting": "NCI-60 cancer cell lines; SN12C, Renal Cancer, SN12C", "result": 0.04, "unit": "µM"}, {"measurement": "GI50", "setting": "NCI-60 cancer cell lines; SNB-19, CNS Cancer, SNB-19", "result": 0.04, "unit": "µM"}, {"measurement": "GI50", "setting": "NCI-60 cancer cell lines; SNB-75, CNS Cancer, SNB-75", "result": 0.05, "unit": "µM"}, {"measurement": "GI50", "setting": "NCI-60 cancer cell lines; SW-620, Colon Cancer, SW-620", "result": "< 0.01", "unit": "µM"}, {"measurement": "GI50", "setting": "NCI-60 cancer cell lines; T47D, Breast Cancer, T-47D", "result": 0.02, "unit": "µM"}, {"measurement": "GI50", "setting": "NCI-60 cancer cell lines; TK-10, Renal Cancer, TK-10", "result": 0.37, "unit": "µM"}, {"measurement": "GI50", "setting": "NCI-60 cancer cell lines; U-251, CNS Cancer, U251", "result": 0.01, "unit": "µM"}, {"measurement": "GI50", "setting": "NCI-60 cancer cell lines; UACC-62, Melanoma, UACC-62", "result": 0.02, "unit": "µM"}, {"measurement": "GI50", "setting": "NCI-60 cancer cell lines; UACC-257, Melanoma, UACC-257", "result": 0.18, "unit": "µM"}, {"measurement": "mean GI50 across NCI-60 panel (MGM)", "setting": "NCI-60 cancer cell lines; average of GI50 values across the entire panel of NCI-60 cancer cell lines", "result": 0.045, "unit": "µM"}, {"measurement": "MYC-inhibitory effect (MYC protein, western blot)", "setting": "[1]", "result": "clear MYC-inhibitory effect"}, {"measurement": "Top1 Inhibiton", "setting": "human topoisomerase I", "result": "++ (medium inhibition, ++, MYC expression inhibited at 2.0 μM, or no clear dose-dependent MYC inhibition)"}]}]}
